According to paper PMC5605686, “Ang-(1-7) is an endogenous β-arrestin-biased agonist of the AT1 receptor with protective action in cardiac hypertrophy” (Scientific Reports, 2017):
Like-named read-outs stand apart in the source and are kept apart here.

Experiments:
AT1R [1] = molecular target: T1, AT1R (Homo sapiens, UniProt P30556); experiment: Intramolecular BRET assay of β-arrestin 2 conformational changes (RLucII-β-arr2-GFP10); format: cell-based
T1 construct: expressed in transfected cells; host or cells: HEK293T
T1 sequence (P30556 1-359): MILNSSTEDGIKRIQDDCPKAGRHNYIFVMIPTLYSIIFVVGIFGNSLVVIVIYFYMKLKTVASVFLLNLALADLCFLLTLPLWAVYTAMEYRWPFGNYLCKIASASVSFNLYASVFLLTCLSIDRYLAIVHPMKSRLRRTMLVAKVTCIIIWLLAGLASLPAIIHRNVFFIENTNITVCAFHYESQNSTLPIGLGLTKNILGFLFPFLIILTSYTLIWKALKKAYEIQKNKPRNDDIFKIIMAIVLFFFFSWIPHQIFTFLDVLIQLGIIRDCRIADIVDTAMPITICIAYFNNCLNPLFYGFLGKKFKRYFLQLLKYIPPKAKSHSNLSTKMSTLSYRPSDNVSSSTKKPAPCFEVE
Experimental: (§1) Receptor promoted activation of β-arrestin results in a conformational rearrangement that can be monitored by BRET-based double brilliance biosensors assessing changes in BRET between RLucII and GFP10 fused respectively to the N- and C-termini of β-arrestins[35]–[37]. Therefore, to assess whether the recruitment of β-arrestins to the AT1R by Ang-(1-7) leads to activation, we monitored the agonist-promoted change in the intramolecular BRET.
(§2) HEK293T cells were cultured in DMEM supplemented with 10% heat-inactivated fetal bovine serum and 100 U/mL penicillin/streptomycin at 37 °C under 5% CO2. […]
(§3) HEK293T cells transiently expressing the AT1R (or AT1R-GFP) and BRET-based biosensors (Gαq-RLucII or Gαi3-RLucII, Gβ1 and Gγ1-GFP10; RLucII-β-arr1-GFP10; RLucII-β-arr2-GFP10; β-arr1-RLucII; β-arr2-RLucII) were washed once with PBS, detached, and seeded in 96-well white plates (OptiPlate – PerkinElmer, Waltham, MA, USA). Following agonist stimulation, cells were incubated at 37 °C and the luciferase substrate (coelenterazine H for BRET1 or coelenterazine 400a for BRET2 – Biotium, Hayward, CA, USA) was added 5 min before reading BRET in a Victor^TM X Light Luminescence microplate reader (PerkinElmer) equipped with different donor/acceptor emission filter sets. […]

AT1R [2] = molecular target: T1, AT1R; experiment: BRET-based biosensor assay of Gi3 activation in HEK293T cells expressing AT1R; format: cell-based
Experimental: (§4) HEK293T cells were cultured in DMEM supplemented with 10% heat-inactivated fetal bovine serum and 100 U/mL penicillin/streptomycin at 37 °C under 5% CO2. Cells were seeded in 100-mm dishes and 48 hours before the experiments, transiently transfected with the AT1R (alone or in combination with BRET-based biosensors). Transient transfections were performed using 25 kDa linear polyethylenimine (PEI – Polysciences, Warrington, PA, USA) at a ratio of 3:1 PEI/DNA. The total amount of transfected DNA was kept constant (10 μg/dish) by the addition of salmon sperm DNA.
as §3

[3] = tested on: isoproterenol-induced cardiac hypertrophy; experiment: End-diastolic pressure (EDP) in rats with isoproterenol-induced cardiac hypertrophy; format: in vivo, Wistar rats; conditions: 24 μg/kg per hour, osmotic mini-pump, 7 days, concomitantly with isoproterenol
Experimental: (§5) The isoproterenol-induced cardiac hypertrophy experimental model was chosen aiming to avoid any involvement of the RAS, as it is known that other models such as pressure-overload, SHR, or mRen2 involve RAS components[50],[60],[61]. Cardiac hypertrophy was induced in male, 6 weeks-old Wistar rats by administration of Isoproterenol [(Iso) 2 mg/kg per day, i.p. diluted in saline, for 7 days]. All experimental protocols were performed in accordance with the Brazilian Council for Control of Animal Experimentation - “Conselho Nacional de Controle de Experimentação Animal” (CONCEA), Brazil; and approved by the Animal Ethical Committee from the Ribeirão Preto Medical School, University of São Paulo (CEUA).
Rats receiving Iso were randomly submitted to treatment for 7 days with either vehicle, Ang-(1-7) [24 μg/kg per hour, via ALZET® osmotic minipumps (Durect, Cupertino, CA, USA)], Ang-(1-7) plus Losartan (10 mg/kg per day orally), Ang-(1-7) plus A779 (744 μg/kg per day i.p.), or Ang-(1-7) plus Losartan plus A779 (same doses as described). […]
Rats were anesthetized with isoflurane (5% for induction and 2–2.5% to maintain anesthesia). […] After stabilization, signals were continuously recorded using a pressure-volume conductance system (MPVS, Millar Instruments) connected to a Power Lab/4SP (ADI Instruments, Sydney, NSW, Australia) feeding the digital signal to an […].

AT1R [4] = molecular target: T1, AT1R; experiment: Competition binding assay against [3H]AngII in whole HEK293T cells transiently expressing the AT1R
Experimental: as §4
Binding assays were performed in whole HEK293T cells at 48 hours after transfection. Twenty-four hours before the experiment, transfected cells were transferred to 24-well plates, treated with poly-L-lysine, and then incubated overnight at 37 °C, in a 5% CO2 environment. […] Samples were collected and mixed with 3 mL of scintillation liquid, and radioactivity was measured using a Liquid Scintillation Counter (Packard Tri-Carb 2100TR – PerkinElmer).

AT1R [5] = molecular target: T1, AT1R; experiment: Intracellular calcium mobilization assay (FLIPR Calcium 5) in HEK293T cells expressing AT1R; format: cell-based
Experimental: Cells were seeded in 100-mm dishes and 48 hours before the experiments, transiently transfected with the AT1R (alone or in combination with BRET-based biosensors). Transient transfections were performed using 25 kDa linear polyethylenimine (PEI – Polysciences, Warrington, PA, USA) at a ratio of 3:1 PEI/DNA. The total amount of transfected DNA was kept constant (10 μg/dish) by the addition of salmon sperm DNA. Twenty-four hours after transfection, HEK293T cells were washed once with PBS, detached, and seeded in 96-well clear-bottom black plates (Cellstar – Greiner Bio-One, Monroe, NC, USA) precoated with poly-L-lysine (Sigma-Aldrich, St. Louis, MO, USA). Cells were cultured in supplemented DMEM without phenol red (Gibco) at a density of 50,000 cells/well for an additional 24-hour period. […] To provide a baseline level, fluorescence was recorded every 2 seconds during 16 seconds. Following agonist stimulation, fluorescence continued to be recorded every 2 seconds for 90 seconds.

[6] = tested on: isoproterenol-induced cardiac hypertrophy; experiment: Isoproterenol-induced cardiac hypertrophy in rats (HW/BW ratio, left ventricular wall thickness); format: in vivo, Wistar rats; conditions: 7 days
Experimental: as §5
Rats receiving Iso were randomly submitted to treatment for 7 days with either vehicle, Ang-(1-7) [24 μg/kg per hour, via ALZET® osmotic minipumps (Durect, Cupertino, CA, USA)], Ang-(1-7) plus Losartan (10 mg/kg per day orally), Ang-(1-7) plus A779 (744 μg/kg per day i.p.), or Ang-(1-7) plus Losartan plus A779 (same doses as described). Doses and administration methods of drugs were based in previously published literature[62]–[66].
Cardiac hypertrophy was confirmed by cardiac mass and histomorphometric analyses. To determine cardiac mass, hearts were removed, dried and weighted. Heart weight (HW) was normalized by the body weight (BW) (HW/BW*1000). For histomorphometric analysis, hearts were cut transversely, fixed in paraformaldehyde (4%) for 24 hours, and kept in ethanol (70%) until dehydration, which consisted in sequential washes with 70, 80, 90 and 100% ethanol. Samples were cleared in xylene and embedded in paraffin. Transversal sections (6 µm) were obtained from the cardiac samples at intervals of 40 µm and stained with hematoxylin and eosin. Images were captured using an Olympus BK 50 microscope (Olympus Corporation of the Americas, Center Valley, PA, USA) equipped with a SPOT RT3 digital camera (Diagnostic Instruments, Inc., Sterling Heights, MI, USA) and measured with ImageJ software (NIH, USA).

AT1R [7] = experiment: BRET assay of β-arrestin 2 recruitment to AT1R-GFP (β-arr2-RLucII); format: cell-based; conditions: for β-arr2 recruitment Emax (%): percentage of the maximum values obtained for AngII
Experimental: as §4
(§6) HEK293T cells transiently expressing the AT1R (or AT1R-GFP) and BRET-based biosensors (Gαq-RLucII or Gαi3-RLucII, Gβ1 and Gγ1-GFP10; RLucII-β-arr1-GFP10; RLucII-β-arr2-GFP10; β-arr1-RLucII; β-arr2-RLucII) were washed once with PBS, detached, and seeded in 96-well white plates (OptiPlate – PerkinElmer, Waltham, MA, USA). Following agonist stimulation, cells were incubated at 37 °C and the luciferase substrate (coelenterazine H for BRET1 or coelenterazine 400a for BRET2 – Biotium, Hayward, CA, USA) was added 5 min before reading BRET in a Victor^TM X Light Luminescence microplate reader (PerkinElmer) equipped with different donor/acceptor emission filter sets. The BRET signal was determined as the ratio of light emitted by fluorescently-labeled biosensors, detected with energy acceptor filters (530 ± 20 nm for BRET1 or 515 ± 20 nm for BRET2), and light emitted by RLucII-tagged biosensors, detected with energy donor filters (480 ± 20 nm for BRET[1] or 410 ± 40 nm for BRET2). The specific BRET signal was defined as the difference between the total BRET signals and the one obtained with RLucII alone.

AT1R [8] = molecular target: T1, AT1R; experiment: ERK1/2 phosphorylation by Western blotting in cells transiently expressing the AT1R; format: cell-based; conditions: 1 μM, 2-30 minutes, compared to AngII
Experimental: Cells transiently expressing the AT1R were seeded on 6-well plates in fully supplemented DMEM and kept at 37 °C. […] Cells were lysed with lysis buffer consisting of 10 mM Tris-HCl, pH 7.5, 150 mM NaCl, 1 mM EDTA, 1mM EGTA, 0.1% SDS, 1% Nonidet P-40 and the following protease inhibitors: 2 mM PMSF, 100 µg/mL SBTI, 10 µg/mL leupeptin, 100 µg/mL aprotinin, 10 mM benzamidin and 2 mM sodium orthovanadate. Following homogenization at 4 °C, during 30 minutes, cellular lysates were centrifuged for 15 minutes (18,000 × g) at 4 °C and total protein from the supernatants was quantified by the Bradford method (Bio-Rad, Hercules, CA). After that, 50 µg of total protein were resolved in SDS-PAGE, transferred to nitrocellulose membranes and Western blotting was performed against total ERK (tERK) and phosphorylated ERK (pERK) (both antibodies from Santa Cruz Biotechnology, Santa Cruz, CA, USA; and molecular size markers from ThermoFisher Scientific, Catalog Number 26610). Blots were captured with ImageQuant 350 (GE Healthcare, Piscataway, NJ, USA). Densitometric values obtained after analyses with ImageJ program (http://rsb.info.nhi.gov/ij/) were used to calculate a ratio pERK/tERK, and corresponding results were plotted using GraphPad software (GraphPad, San Diego, CA) as fold of increase over the basal value obtained with vehicle-treated control.

AT1R [9] = molecular target: T1, AT1R; experiment: Intramolecular BRET assay of β-arrestin 1 conformational changes (RLucII-β-arr1-GFP10); format: cell-based
Experimental: as §1, §2, §3

AT1R [10] = molecular target: T1, AT1R; experiment: BRET-based biosensor assay of Gq activation (Gαq-RLucII / Gγ1-GFP10) in HEK293T cells expressing AT1R; format: cell-based
Experimental: as §4, §3

AT1R [11] = experiment: BRET assay of β-arrestin 1 recruitment to AT1R-GFP (β-arr1-RLucII); format: cell-based; conditions: for β-arr1 recruitment Emax (%): percentage of the maximum values obtained for AngII
Experimental: as §4, §6

[12] = molecular target: T2, angiotensin II type 1 receptor (UniProt P30556 1-359); experiment: cell-based or functional assay
T2 sequence (looked up): T1 sequence (P30556 1-359)

AT1R-GFP = molecular target: T3, AT1R-GFP (UniProt P30556 1-359); experiment: cell-based or functional assay
T3 sequence (looked up): T1 sequence (P30556 1-359)

[13] = molecular target: T2, angiotensin II type 1 receptor; experiment: radioligand binding; competition against 0.5 nM [^3H]AngII on whole HEK293T cells transiently expressing AT1R; 24 h at 4 °C; 25 mM Tris-HCl pH 7.4, 5 mM MgCl2, 0.1% BSA, 100 μg/mL bacitracin; conditions: one partner purified
[14] = 24 μg/kg per hour, osmotic mini-pump, concomitantly with isoproterenol

## CC[C@H](C)[C@H](NC(=O)[C@H](Cc1ccc(O)cc1)NC(=O)[C@@H](NC(=O)[C@H](CCCNC(=N)N)NC(=O)[C@@H](N)CC(=O)O)C(C)C)C(=O)N[C@@H](Cc1c[nH]cn1)C(=O)N1CCC[C@H]1C(=O)O [Ang-(1-7), Asp-Arg-Val-Tyr-Ile-His-Pro]
AT1R [1]; intramolecular BRET, mean ± SEM, read-out: β-arr2 conf. changes pEC50 (converted)
  EC50: 1380 nM
AT1R [1]; read-out: β-arr2 conf. changes Emax (%)
  Emax: 64.4%
AT1R [2]
  Gi3 activation, in words: did not trigger Gi3 activation
[3]
  end-diastolic pressure (EDP): completely prevented the increase in EDP
AT1R [4]; competition against 0.5 nM [3H]AngII, HEK293T cells expressing AT1R, mean ± SEM, read-out: Binding pKi (converted)
  Ki: 219 nM
AT1R [4]; competition binding against [3H]AngII, read-out: affinity for the AT1R
  Ki: ~200 nM
AT1R [5]; HEK-293T, read-out: Ca2+ mobilization Emax (%)
  Emax: 24.8%
AT1R [5]; concentration-response curve, HEK293T cells expressing AT1R
  intracellular Ca2+ mobilization, in words: only a weak increase in intracellular Ca^2+ levels
[6]; [14]
  cardiac hypertrophy (left ventricular wall thickness): partially blocked the development of cardiac hypertrophy
  heart weight/body weight (HW/BW) ratio: partially blocked
AT1R [7]; BRET, mean ± SEM
  β-arr2 recruitment pEC50: 6.56 ± 0.09
AT1R [7]
  β-arr2 recruitment Emax (%): 87.7%
AT1R [7]; listed as Ang1-7
  β-arr2 recruitment Emax (%): ~90%
AT1R [8]
  ERK1/2 phosphorylation: partial agonist resulting in lower and more transient activation
AT1R [9]; intramolecular BRET, mean ± SEM, read-out: β-arr1 conf. changes pEC50 (converted)
  EC50: 245 nM
AT1R [9]; read-out: β-arr1 conf. changes Emax (%)
  Emax: 69.1%
AT1R [10]; HEK-293T
  Emax: 12.8%
AT1R [10]; any of the concentrations tested, HEK293T cells expressing AT1R
  Gq activation (separation of Gαq-RLucII from Gγ1-GFP10), in words: did not promote the separation of Gαq-RLucII from Gγ1-GFP10
AT1R [11]; BRET, mean ± SEM
  β-arr1 recruitment pEC50: 6.38 ± 0.14
AT1R [11]
  β-arr1 recruitment Emax (%): 67.8%
AT1R [11]; listed as Ang1-7
  β-arr1 recruitment Emax (%): ~70%

## CCCCc1nc(Cl)c(CO)n1Cc1ccc(-c2ccccc2-c2nn[nH]n2)cc1 [Losartan, reference compound]
[6]; co-treatment with Ang-(1-7), 10 mg/kg per day orally
  blockade of the effect of Ang-(1-7) on the cardiovascular parameters (HW/BW, wall thickness, EDP): did not prevent the effect of Ang-(1-7)

B1: angiotensin-(1-7) (peptide)
peptide: DRVYIHP
notes: heptapeptide angiotensin-(1-7), cut from AngII by ACE2 or from AngI by endopeptidases; printed in three-letter code; also called Ang-(1-7); Ang1-7
[12]
  β-arrestin 1 conformational change (intramolecular BRET, RLucII-β-arr1-GFP10) in HEK293T cells expressing AT1R, pEC50: 6.61
AT1R-GFP
  recruitment of β-arr1-RLucII to AT1R-GFP (BRET), pEC50 of the agonist: 6.38
[13]
  pKi: 6.66
